The source of these data is PubChem BioAssay AID1259411 (Chemical Carcinogenesis Research Information System (CCRIS), 2018).

In this data set the test system is rodent carcinogenicity bioassays, tumor incidence. The data set is described as follows: CCRIS carcinogenicity studies. Particulars: Dose: 0. A digest of the protocol:
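NCI-built, expert-reviewed records of carcinogenicity and related test outcomes (mutagenicity, tumor promotion/inhibition) compiled from published and report sources, historical span 1985-2011, not updated.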

Activity calls are given as the source filed them. No rule for the calls is given here.

Consider `Cn1c2ccccc2c2ccccc21`, for which the carcinogen call by setting is: (Species: MOUSE, Strain/Sex: CD-1/FEMALE, Route: INTRAPERITONEAL, 1.75 UMOL/MOUSE (TOTAL DOSE) ADMINISTERED DURING DAYS 1, 8, AND 15 OF LIFE (STUDY DURATION: 52 WK)) “inactive; negative”; (Species: MOUSE, Strain/Sex: CD-1/MALE, Route: INTRAPERITONEAL, 1.75 UMOL/MOUSE (TOTAL DOSE) ADMINISTERED DURING DAYS 1, 8, AND 15 OF LIFE (STUDY DURATION: 52 WK)) “inactive; negative”.
For the compound `CNC(=O)Oc1ccc2c(c1)[C@]1(C)CCN(C)[C@@H]1N2C`, the carcinogen call (Species: RAT, Strain/Sex: SPRAGUE-DAWLEY/FEMALE (70/GROUP), Route: SUBCUTANEOUS (INGUINAL REGION), 3.3 UG/KG BW, 2/D FOR 5 D (STUDY DURATION: 28 MO), 3.3 UG/KG BW, 2/D FOR 5 D (STUDY DURATION: 28 MO), Tumor Site: Type of Lesion: MAMMARY GLAND: TUMOR) is “active; positive”.
As to `O=C1C(O)N=C(c2ccccc2F)c2cc(Cl)ccc2N1CCO` (centres undefined), the carcinogen call is “inactive; negative” (Species: RAT, Strain/Sex: SPRAGUE-DAWLEY/FEMALE, Route: ORAL, 3, 10, 30 MG/KG IN THE DIET FOR 104 WK (STUDY DURATION: 104 WK), 3, 10, 30 MG/KG IN THE DIET FOR 104 WK (STUDY DURATION: 104 WK)) and “inactive; negative” (Species: RAT, Strain/Sex: SPRAGUE-DAWLEY/MALE, Route: ORAL, 3, 10, 30 MG/KG IN THE DIET FOR 104 WK (STUDY DURATION: 104 WK), 3, 10, 30 MG/KG IN THE DIET FOR 104 WK (STUDY DURATION: 104 WK)).
With `CC(=O)Nc1ccc(C(=O)CCl)cc1`, the carcinogen call by setting is: (Species: MOUSE, Strain/Sex: B6C3F1/FEMALE, Route: ORAL, 5000, 10000 PPM IN DIET, 5000, 10000 PPM IN DIET) “inactive; negative”; (Species: MOUSE, Strain/Sex: B6C3F1/MALE, Route: ORAL, 5000, 10000 PPM IN DIET, 5000, 10000 PPM IN DIET) “inactive; negative”; (Species: RAT, Strain/Sex: F344/FEMALE, Route: ORAL, 1000, 2000 PPM IN DIET, 1000, 2000 PPM IN DIET) “inactive; negative”; (Species: RAT, Strain/Sex: F344/MALE, Route: ORAL, 1000, 2000 PPM IN DIET, 1000, 2000 PPM IN DIET) “inactive; negative”.
Consider `CO[C@@H](Cc1ccc(OCCCOc2ccc(Oc3ccccc3)cc2)cc1)C(=O)O`, for which the carcinogen call was “active; positive. study primarily directed to urine characteristics” (Species: Rat, Strain/Sex: F344/N / Female (60/Group), Route: Oral (gavage), 0.1, 0.3, 1.0 mg/kg bw daily for 104 wk, study duration 104 wk, 0.1, 0.3, 1.0 mg/kg bw daily for 104 wk, study duration 104 wk, Tumor Site: Type of Lesion: Bladder: carcinoma (0, 0, 2, 8), papilloma (0, 0, 0, 6)) and “inactive; negative” (Species: Rat, Strain/Sex: F344/N / Male (60/Group), Route: Oral (gavage), 0.3, 1.0, 3.0 mg/kg bw daily for 104 wk, study duration 104 wk, 0.3, 1.0, 3.0 mg/kg bw daily for 104 wk, study duration 104 wk).
For `CC(Cl)Cl`, the carcinogen call reads like this: (Species: MOUSE, Strain/Sex: B6C3F1/FEMALE, Route: GAVAGE, 1665, 3331 MG/KG 5/WK FOR 78 WK (STUDY DURATION: 91 WK), 1665, 3331 MG/KG 5/WK FOR 78 WK (STUDY DURATION: 91 WK), Tumor Site: Type of Lesion: UTERUS: ENDOMETRIAL STROMAL POLYP) “equivocal”; (Species: MOUSE, Strain/Sex: B6C3F1/MALE, Route: GAVAGE, 1,442, 2,885 MG/KG 5/WK FOR 78 WK (STUDY DURATION: 91 WK), 1,442, 2,885 MG/KG 5/WK FOR 78 WK (STUDY DURATION: 91 WK)) “inactive; negative”; (Species: RAT, Strain/Sex: OSBORNE-MENDEL/FEMALE, Route: GAVAGE, 475, 950 MG/KG 5/WK FOR 78 WK (STUDY DURATION: 111 WK), 475, 950 MG/KG 5/WK FOR 78 WK (STUDY DURATION: 111 WK), Tumor Site: Type of Lesion: MAMMARY GLAND: ADENOCARCINOMA, LUNG: HEMANGIOSARCOMA, SPLEEN: HEMANGIOSARCOMA, Tumor Site: Type of Lesion: MAMMARY GLAND: ADENOCARCINOMA, LUNG: HEMANGIOSARCOMA, SPLEEN: HEMANGIOSARCOMA) “equivocal”; (Species: RAT, Strain/Sex: OSBORNE-MENDEL/MALE, Route: GAVAGE, 382, 764 MG/KG 5/WK FOR 78 WK (STUDY DURATION: 111 WK), 382, 764 MG/KG 5/WK FOR 78 WK (STUDY DURATION: 111 WK)) “inactive; negative”.
Turning to `[O-]/[N+](=N\O)c1ccccc1`, the carcinogen call (Species: MOUSE, Strain/Sex: B6C3F1/FEMALE, Route: ORAL, 0.2, 0.4% TWA, IN DIET FOR 78 WK (STUDY DURATION: 95-98 WK), 0.2, 0.4% TWA, IN DIET FOR 78 WK (STUDY DURATION: 95-98 WK), Tumor Site: Type of Lesion: CIRCULATORY SYSTEM: HEMANGIOSARCOMA OR HEMANGIOMA, LIVER: HEPATOCELLULAR CARCINOMA, HEPATOCELLULAR ADENOMA OR CARCINOMA;, Tumor Site: Type of Lesion: CIRCULATORY SYSTEM: HEMANGIOSARCOMA OR HEMANGIOMA, LIVER: HEPATOCELLULAR CARCINOMA, HEPATOCELLULAR ADENOMA OR CARCINOMA) was “active; positive”; the carcinogen call (Species: MOUSE, Strain/Sex: B6C3F1/MALE, Route: ORAL, 0.2, 0.4% TWA, IN DIET FOR 78 WK (STUDY DURATION: 95-98 WK), 0.2, 0.4% TWA, IN DIET FOR 78 WK (STUDY DURATION: 95-98 WK), Tumor Site: Type of Lesion: CIRCULATORY SYSTEM: HEMANGIOSARCOMA) is “active; positive”; the carcinogen call (Species: RAT, Strain/Sex: F344/FEMALE, Route: ORAL, 0.15, 0.30% IN DIET FOR 78 WK (STUDY DURATION: 106-110 WK), 0.15, 0.30% IN DIET FOR 78 WK (STUDY DURATION: 106-110 WK), Tumor Site: Type of Lesion: CIRCULATORY SYSTEM: HEMANGIOSARCOMA, LIVER: HEPATOCELLULAR CARCINOMA, HEPATOCELLULAR CARCINOMA OR NEOPLASTIC NODULE, STO, Tumor Site: Type of Lesion: CIRCULATORY SYSTEM: HEMANGIOSARCOMA, LIVER: HEPATOCELLULAR CARCINOMA, HEPATOCELLULAR CARCINOMA OR NEOPLASTIC NODULE, STO) is “active; positive”; the carcinogen call (Species: RAT, Strain/Sex: F344/MALE, Route: ORAL, 0.15, 0.30% IN DIET FOR 78 WK (STUDY DURATION: 97-110 WK), 0.15, 0.30% IN DIET FOR 78 WK (STUDY DURATION: 97-110 WK), Tumor Site: Type of Lesion: CIRCULATORY SYSTEM: HEMANGIOSARCOMA, LIVER: HEPATOCELLULAR CARCINOMA OR NEOPLASTIC NODULE, STOMACH: SQUAMOUS CELL CARCIN, Tumor Site: Type of Lesion: CIRCULATORY SYSTEM: HEMANGIOSARCOMA, LIVER: HEPATOCELLULAR CARCINOMA OR NEOPLASTIC NODULE, STOMACH: SQUAMOUS CELL CARCIN) was “active; positive”.
